Results: patent publication US20030134901A1, “Lipoxin compounds and their use in treating cell proliferative disorders” (priority 1993, published 2003)
One block for each molecule: values may come before it.

What was measured:
[1] = biological target: HUVEC (putative LTD4 receptors); experiment: 3H-LXA4 specific binding to HUVEC; design: species or system human
Experimental: Cell cultures and differentiation. HL-60 cells were seeded in RPMI medium supplemented with 100 U/ml penicillin, 100 μg/ml streptomycin, and 10% fetal calf serum (Hyclone, Logan, Utah), incubated at 37° C. with 5% CO2 atmosphere in 250 ml flasks. […] Human umbilical vein endothelial cells (HUVEC) maintained in culture third passage were obtained from Dr. M. Gimbrone (Brigham and Women's Hospital Department of Pathology).
Binding experiments with HUVEC cells were performed in 12 well plates with 3.5×10^5 cells/well. After 10 min, wells were washed twice with PBS and cell-associated label was recovered by adding glacial acetic acid (0.5 ml). Results obtained from these assays were submitted for further analysis using the Ligand program (Elsevier-Biosoft, Cambridge, UK).

[2] = biological target: T1, LXA4 specific binding sites of differentiated HL-60 cells (Homo sapiens, UniProt P25090); experiment: 3H-LXA4 specific binding to differentiated HL-60 cells
T1 construct: endogenous in cells; host or cells: HL-60 cells differentiated with DMSO, retinoic acid or PMA; intact cells
T1 sequence (P25090 1-351): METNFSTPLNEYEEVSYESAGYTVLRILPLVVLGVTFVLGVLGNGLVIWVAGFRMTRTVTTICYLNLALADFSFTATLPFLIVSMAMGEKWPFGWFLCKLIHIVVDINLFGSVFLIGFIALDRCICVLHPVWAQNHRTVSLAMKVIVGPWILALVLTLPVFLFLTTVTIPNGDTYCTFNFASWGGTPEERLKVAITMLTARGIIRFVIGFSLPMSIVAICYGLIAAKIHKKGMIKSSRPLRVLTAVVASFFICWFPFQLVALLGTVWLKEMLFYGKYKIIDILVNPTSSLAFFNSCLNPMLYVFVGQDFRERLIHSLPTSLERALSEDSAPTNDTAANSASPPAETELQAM
Experimental: Preparation of [11,12-^3H]LXA4. Tritiation of 11,12-acetylenic LXA4 methyl ester was carried out under a custom tritiation service (NET-259:92-2326) by New England Nuclear (Boston, Mass.). Briefly, 11,12-acetylene methyl ester was characterized by UV absorbance and reverse-phase HPLC as in (Nicolaou, K. C. et al. (1985) J. Am. Chem. Soc. 107:7515) and exposed to tritium atmosphere in methylene chloride at room temperature. This incubation was stirred in the presence of Lindlar catalyst (1.0 mg from Fluka Chemicals) for˜1 h. The resulting mixture was stored in methanol and isolated using RP-HPLC. Tritiated products were chromatographed as methyl esters utilizing a gradient HPLC system equipped with a photodiode array rapid spectral detector (Serhan, C. N., Methods in Enzymology: Arachidonate Related Lipid Mediators, in Murphy R. C., Fitzpatrick, F. (eds.), vol. 187. Orlando, Fla., Academic, (1990), p. 167). This mixture contained both [11,12-^3H]LXA4 and [11,12-^3H]-11-trans-LXA4 methyl esters (˜1:3 ratio) as determined by coelution with synthetic standards. After RP-HPLC, fractions containing [11,12-^3H]LXA4 were collected, and extracted into ethyl acetate. The free acid was prepared by LiOH saponification (Fiore, S. et al. (1992) J. Biol. Chem. 267:16168). Material from these fractions, when injected into UV-electrochemical detection HPLC, gave greater than 90% of radioactivity associated with a tetraene-containing product that coeluted with synthetic LXA4. Materials that eluted with the retention time of authentic LXA4 in two HPLC systems were taken for binding experiments. The specific activity calculated for [11,12-^3H]LXA4 was 40.5 Ci/mmole.
Cell cultures and differentiation. HL-60 cells were seeded in RPMI medium supplemented with 100 U/ml penicillin, 100 μg/ml streptomycin, and 10% fetal calf serum (Hyclone, Logan, Utah), incubated at 37° C. with 5% CO2 atmosphere in 250 ml flasks. Individual flasks containing ˜[…] next received dimethyl sulfoxide (DMSO) (1.12% v/v, 120 h) or retinoic acid (RA) (1 μM, 120 h) or phorbol myristate acetate (PMA) (20 nM, 48 h). Before performing binding assays, cells were washed twice in phosphate buffered saline (PBS), Ca^2+- and Mg^2+-free, enumerated and suspended at 20×10^6 cells/ml in Tris buffer (10 mM), pH 7.4 (Fiore, S. et al.(1992) J. Biol. Chem. 267:16168). Nitro blue tetrazolium reduction was performed to monitor induction of polymorphonuclear phenotype as in (Imaizumi, M. and Breitman, T. R. (1986) Blood 67:1273), and cell adherence was determined for induction of macrophage-like phenotype (Collins, S. J. (1987) Blood 70:1273). Human umbilical vein endothelial cells (HUVEC) maintained in culture third passage were obtained from Dr. M. Gimbrone (Brigham and Women's Hospital Department of Pathology).
Ligand binding. ^3H-LXA4 and ^3H-LTB4 binding was performed essentially as in Fiore, S. et al.(1992) J. Biol. Chem. 267:16168. After suspending cells in Tris buffer 10 mM (pH 7.4, Ca^2+ 2.5 mM, Mg^2+ 1.2 mM), aliquots (0.5 ml) were incubated (20 min at 4° C.) with ^3H- ligands alone (0.3 nM) or in the presence of increasing concentrations of homoligands or other compounds (3-300 nM). The incubations were rapidly centrifuged (60 sec, 12,000 g) on silicon oil (d=1.028), and cell-associated radioactivity was determined by liquid scintillation counting (Wallac 1409, Pharmacia, Piscataway, N.J.). Binding experiments with HUVEC cells were performed in 12 well plates with 3.5×10^5 cells/well. After 10 min, wells were washed twice with PBS and cell-associated label was recovered by adding glacial acetic acid (0.5 ml). Results obtained from these assays were submitted for further analysis using the Ligand program (Elsevier-Biosoft, Cambridge, UK).

A549 cells = experiment: 15-HETE generation by IL-1β-treated A549 cells; format: cell-based, human; conditions: permeabilized IL-1β-treated A549 cells, arachidonic acid 20 μM
Experimental: FIG. 3 is a graph showing the relative chiralities of 15-HETE triggered by ASA. A549 cells (10^7 cells per flask) were exposed to IL-1β (1 ng/ml) for 24 h, treated with vehicle (0.1% vol/vol ethanol) (□) or ASA (▪) for 20 min and then incubated (30 min, 37° C.) in HBSS containing arachidonic acid (20 μM) and A23187 (5 μM). Products were chromatographed by RP-HPLC (as in FIG. 1B) and the region containing 15-HETE was collected, extracted with chloroform and treated with diazomethane. Chiral analysis was performed with a Bakerbond DNBPG (see Methods for details). Results are representative of two separate experiments showing similar results.
In incubations involving permeabilized A549 cells (prepared by a rapid freeze-thaw cycle), IL-1β-treated (1 ng/ml, 24 h) A549 cells (1.5×10^6 cells/ml) were pretreated for 20 min with either vehicle (0.1% EtOH), ASA (500 (M; used throughout), 5 (M 17-ODYA, an inhibitor of cytochrome P450, (Muerhoff A. S., et al. (1989) Prostaglandin and fatty acid ω and (ω-1)-oxidation in rabbit lung: acetylenic fatty acid mechanism-based inactivators as specific inhibitors. J Biol.Chem. 244: 749-756.), or […] Rev 5901 isomer, a 5-LO inhibitor, subjected to two cycles of rapid freezing in a dry ice-acetone bath and thawing to room temperature (full cycle <20 min), and incubated with arachidonic acid ([…] for 20 min at 37° C. in 4 ml of DPBS^2+. In experiments involving radiolabeled arachidonic acid, incubations were initiated with the addition of [^3H]-arachidonic acid (0.25 (Ci/ml) plus unlabeled arachidonic acid ([…] for 20 min at 37° C.
For time-course experiments involving the generation of 15-HETE from endogenous sources (see FIG. 2B), intact A549 cells were exposed to IL-1β (1 ng/ml) for up to 48 h and then treated with vehicle (containing 0.1% EtOH) or ASA for 20 min followed by addition of ionophore A23187 (5 μM) in 4 ml of HBSS for 30 min at 37° C.
The monohydroxy eicosanoids (i. e. 5-, 12- and 15-HETE) from A549 cells were analyzed using a Ultrasphere-ODS column (5 μm, 4.6 mm×25 cm) (Beckman Instruments, Fullerton, Calif.) was eluted with MeOH/H2O/acetic acid (65:35:0.01; v/v/v) as phase one (t0-20 min), and a linear gradient with MeOH/acetic acid (99.9:0.1, v/v) as phase two (20-45 min) at a flow rate of 1.0 ml/min. The R- and S-enantiomers of 15-HETE were resolved and identified using a chiral HPLC system similar to that reported by Hawkins et al. (1988). […] When indicated, generation of 15-HETE from endogenous sources was monitored by radioimmunoassay (RIA). […]

- Kd [1]: 11 ± 2.6 nM
- Kd ([2]; isotherm binding, 4° C., 10 min, 0.1-30 nM): 0.6 ± 0.3 nM
Compound: [3H]C(/C=C/C=C/[C@@H](O)[C@@H](O)CCCC(=O)O)=C([3H])/C=C/[C@@H](O)CCCCC [[11,12-^3H]LXA4]

- competition of specific 3H-LXA4 binding [1]: effective in competing
Compound: CCCCC/C=C\C\C=C/C=C/C=C/[C@@H](SC[C@H](N)C(=O)NCC(=O)O)[C@@H](O)CCCC(=O)O [LTD4]

- competition of specific 3H-LXA4 binding [1]: effective in competing
- displacement of 3H-LXA4 specific binding ([2]; competition, competitor 300 nM where printed): did not displace
Compound: O=C(O)CCS[C@H](c1ccccc1CCCCCCCCc1ccccc1)[C@@H](O)C(=O)O [SKF 104353]

Compound: C#CCCCCCCCCCCCCCCCC(=O)O [17-ODYA, 17-octadecaynoic acid]
- reduction in 15-HETE (A549 cells): ~50%
